In PubChem BioAssay (NCI):
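How tested: cells in 96-well plates exposed to compound for 48 hours at five concentrations. Here, GI50 denotes the concentration required for 50% inhibition of growth. TGI is the concentration that stops growth completely.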

Assays:
Assay in all cases: inhibition of tumour cell growth, NCI panel, 48 h
786-0 renal = system: 786-0 renal
A498 renal = system: A498 renal
A549 NSCLC = system: A549 NSCLC
ACHN renal = system: ACHN renal
BT-549 breast = system: BT-549 breast
CAKI-1 renal = system: CAKI-1 renal
CCRF-CEM leukemia = system: CCRF-CEM leukemia
COLO 205 colon = system: COLO 205 colon
DU-145 prostate = system: DU-145 prostate
EKVX NSCLC = system: EKVX NSCLC
HCC-2998 colon = system: HCC-2998 colon
HCT-116 colon = system: HCT-116 colon
HCT-15 colon = system: HCT-15 colon
HL-60(TB) leukemia = system: HL-60(TB) leukemia
HOP-62 NSCLC = system: HOP-62 NSCLC
HOP-92 NSCLC = system: HOP-92 NSCLC
HS 578T breast = system: HS 578T breast
HT29 colon = system: HT29 colon
IGROV1 ovarian = system: IGROV1 ovarian
K-562 leukemia = system: K-562 leukemia
KM12 colon = system: KM12 colon
LOX IMVI melanoma = system: LOX IMVI melanoma
M14 melanoma = system: M14 melanoma
MALME-3M melanoma = system: MALME-3M melanoma
MCF7 breast = system: MCF7 breast
MDA-MB-231 breast = system: MDA-MB-231 breast
MDA-MB-435 = system: MDA-MB-435
MOLT-4 leukemia = system: MOLT-4 leukemia
NCI-H226 lung = system: NCI-H226 lung
NCI-H23 lung = system: NCI-H23 lung
NCI-H460 lung = system: NCI-H460 lung
NCI-H522 lung = system: NCI-H522 lung
NCI/ADR-RES ovarian = system: NCI/ADR-RES ovarian
OVCAR-3 ovarian = system: OVCAR-3 ovarian
OVCAR-4 ovarian = system: OVCAR-4 ovarian
OVCAR-5 ovarian = system: OVCAR-5 ovarian
OVCAR-8 ovarian = system: OVCAR-8 ovarian
PC-3 prostate = system: PC-3 prostate
RPMI-8226 leukemia = system: RPMI-8226 leukemia
RXF 393 renal = system: RXF 393 renal
SF-268 CNS = system: SF-268 CNS
SF-295 CNS = system: SF-295 CNS
SK-MEL-2 melanoma = system: SK-MEL-2 melanoma
SK-MEL-28 melanoma = system: SK-MEL-28 melanoma
SK-MEL-5 melanoma = system: SK-MEL-5 melanoma
SK-OV-3 ovarian = system: SK-OV-3 ovarian
SN12C renal = system: SN12C renal
SNB-19 CNS = system: SNB-19 CNS
SNB-75 CNS = system: SNB-75 CNS
SR leukemia = system: SR leukemia
SW-620 colon = system: SW-620 colon
T-47D breast = system: T-47D breast
TK-10 renal = system: TK-10 renal
U251 CNS = system: U251 CNS
UACC-257 melanoma = system: UACC-257 melanoma
UACC-62 melanoma = system: UACC-62 melanoma
UO-31 renal = system: UO-31 renal

O=C1NOC(c2ccc(O)cc2)(c2ccc(O)cc2)c2ccccc21
GI50 (786-0 renal): > 100 µM
TGI (786-0 renal): > 100 µM
GI50 (A498 renal): > 100 µM
TGI (A498 renal): > 100 µM
GI50 (A549 NSCLC): > 100 µM
TGI (A549 NSCLC): > 100 µM
GI50 (ACHN renal): > 100 µM
TGI (ACHN renal): > 100 µM
GI50 (BT-549 breast): > 100 µM
TGI (BT-549 breast): > 100 µM
GI50 (CAKI-1 renal): > 100 µM
TGI (CAKI-1 renal): > 100 µM
GI50 (CCRF-CEM leukemia): > 100 µM
TGI (CCRF-CEM leukemia): > 100 µM
GI50 (COLO 205 colon): > 100 µM
TGI (COLO 205 colon): > 100 µM
GI50 (DU-145 prostate): > 100 µM
TGI (DU-145 prostate): > 100 µM
GI50 (EKVX NSCLC): > 100 µM
TGI (EKVX NSCLC): > 100 µM
GI50 (HCC-2998 colon): > 100 µM
TGI (HCC-2998 colon): > 100 µM
GI50 (HCT-116 colon): > 100 µM
TGI (HCT-116 colon): > 100 µM
GI50 (HCT-15 colon): > 100 µM
TGI (HCT-15 colon): > 100 µM
GI50 (HL-60(TB) leukemia): > 100 µM
TGI (HL-60(TB) leukemia): > 100 µM
GI50 (HOP-62 NSCLC): > 100 µM
TGI (HOP-62 NSCLC): > 100 µM
GI50 (HOP-92 NSCLC): > 100 µM
TGI (HOP-92 NSCLC): > 100 µM
GI50 (HS 578T breast): > 100 µM
TGI (HS 578T breast): > 100 µM
GI50 (HT29 colon): > 100 µM
TGI (HT29 colon): > 100 µM
GI50 (IGROV1 ovarian): > 100 µM
TGI (IGROV1 ovarian): > 100 µM
GI50 (K-562 leukemia): > 100 µM
TGI (K-562 leukemia): > 100 µM
GI50 (KM12 colon): > 100 µM
TGI (KM12 colon): > 100 µM
GI50 (LOX IMVI melanoma): > 100 µM
TGI (LOX IMVI melanoma): > 100 µM
GI50 (M14 melanoma): > 100 µM
TGI (M14 melanoma): > 100 µM
GI50 (MALME-3M melanoma): > 100 µM
TGI (MALME-3M melanoma): > 100 µM
GI50 (MCF7 breast): > 100 µM
TGI (MCF7 breast): > 100 µM
GI50 (MDA-MB-231 breast): > 100 µM
TGI (MDA-MB-231 breast): > 100 µM
GI50 (MDA-MB-435): > 100 µM
TGI (MDA-MB-435): > 100 µM
GI50 (MOLT-4 leukemia): > 100 µM
TGI (MOLT-4 leukemia): > 100 µM
GI50 (NCI-H226 lung): > 100 µM
TGI (NCI-H226 lung): > 100 µM
GI50 (NCI-H23 lung): > 100 µM
TGI (NCI-H23 lung): > 100 µM
GI50 (NCI-H460 lung): > 100 µM
TGI (NCI-H460 lung): > 100 µM
GI50 (NCI-H522 lung): > 100 µM
TGI (NCI-H522 lung): > 100 µM
GI50 (NCI/ADR-RES ovarian): > 100 µM
TGI (NCI/ADR-RES ovarian): > 100 µM
GI50 (OVCAR-3 ovarian): > 100 µM
TGI (OVCAR-3 ovarian): > 100 µM
GI50 (OVCAR-4 ovarian): > 100 µM
TGI (OVCAR-4 ovarian): > 100 µM
GI50 (OVCAR-5 ovarian): > 100 µM
TGI (OVCAR-5 ovarian): > 100 µM
GI50 (OVCAR-8 ovarian): > 100 µM
TGI (OVCAR-8 ovarian): > 100 µM
GI50 (PC-3 prostate): > 100 µM
TGI (PC-3 prostate): > 100 µM
GI50 (RPMI-8226 leukemia): > 100 µM
TGI (RPMI-8226 leukemia): > 100 µM
GI50 (RXF 393 renal): > 100 µM
TGI (RXF 393 renal): > 100 µM
GI50 (SF-268 CNS): > 100 µM
TGI (SF-268 CNS): > 100 µM
GI50 (SF-295 CNS): > 100 µM
TGI (SF-295 CNS): > 100 µM
GI50 (SK-MEL-2 melanoma): > 100 µM
TGI (SK-MEL-2 melanoma): > 100 µM
GI50 (SK-MEL-28 melanoma): > 100 µM
TGI (SK-MEL-28 melanoma): > 100 µM
GI50 (SK-MEL-5 melanoma): > 100 µM
TGI (SK-MEL-5 melanoma): > 100 µM
GI50 (SK-OV-3 ovarian): > 100 µM
TGI (SK-OV-3 ovarian): > 100 µM
GI50 (SN12C renal): > 100 µM
TGI (SN12C renal): > 100 µM
GI50 (SNB-19 CNS): > 100 µM
TGI (SNB-19 CNS): > 100 µM
GI50 (SNB-75 CNS): > 100 µM
TGI (SNB-75 CNS): > 100 µM
GI50 (SR leukemia): > 100 µM
TGI (SR leukemia): > 100 µM
GI50 (SW-620 colon): > 100 µM
TGI (SW-620 colon): > 100 µM
GI50 (T-47D breast): > 100 µM
TGI (T-47D breast): > 100 µM
GI50 (TK-10 renal): > 100 µM
TGI (TK-10 renal): > 100 µM
GI50 (U251 CNS): > 100 µM
TGI (U251 CNS): > 100 µM
GI50 (UACC-257 melanoma): > 100 µM
TGI (UACC-257 melanoma): > 100 µM
GI50 (UACC-62 melanoma): > 100 µM
TGI (UACC-62 melanoma): > 100 µM
GI50 (UO-31 renal): > 100 µM
TGI (UO-31 renal): > 100 µM
